Experimental data taken from US20050113410A1, “Pharmaceutical salts of zafirlukast” (priority 2003, published 2005).
Structures can show the parent of a compound that is named as a salt.

Key:
[1] = cited from earlier work
[2] = Stability of the crystalline form under aqueous conditions (conversion to neutral form, checked by PXRD); format: physicochemical
Description: All powder x-ray diffraction patterns were obtained using the D/Max Rapid X-ray Diffractometer (D/Max Rapid, Contact Rigaku/MSC, 9009 New Trails Drive, The Woodlands, Tex., USA 77381-5209) equipped with a copper source (Cu/Kα1.5406 angstroms), manual x-y stage, and 0.3 mm collimator. The sample was loaded into a 0.3 mm boron rich glass capillary tube (e.g., Charles Supper Company, 15 Tech Circle, Natick, Mass. 01760-1024) by sectioning off one end of the tube and tapping the open, sectioned end into a bed of the powdered sample or into the sediment of a slurried precipitate. Note, precipitate can be amorphous or crystalline. The loaded capillary was mounted in a holder that was secured into the x-y stage. A diffractogram was acquired (e.g., Control software: RINT Rapid Control Software, Rigaku Rapid/XRD, version 1.0.0, © 1999 Rigaku Co.) under ambient conditions at a power setting of 46 kV at 40 mA in reflection mode, while oscillating about the omega-axis from 0-5 degrees at 1 degree/s and spinning about the phi-axis at 2 degrees/s. The exposure time was 15 minutes unless otherwise specified. […]

[3] = commercially available form (ACCOLATE), neutral molecule; cited from earlier work

## COc1cc(C(=O)NS(=O)(=O)c2ccccc2C)ccc1Cc1cn(C)c2ccc(NC(=O)OC3CCCC3)cc12 [Amorphous neutral zafirlukast]
[1]
  conversion of form in the presence of water: convert to a monohydrate form

## COc1cc(C(=O)NS(=O)(=O)c2ccccc2C)ccc1Cc1cn(C)c2ccc(NC(=O)OC3CCCC3)cc12 [potassium salt of zafirlukast]
[2]; after exposure to neutral or acidic aqueous conditions
  PXRD diffractogram after exposure to aqueous conditions: remains unchanged
[2]; aqueous conditions, either neutral or acidic
  conversion back to the neutral form under aqueous conditions: does not convert back to the neutral form

## COc1cc(C(=O)NS(=O)(=O)c2ccccc2C)ccc1Cc1cn(C)c2ccc(NC(=O)OC3CCCC3)cc12 [zafirlukast, 4-(5-cyclopentyloxy-carbonylamino-1-methyl-indol-3-ylmethyl)-3-methoxy-N-o-tolylsulfonylbenzamide]
[3]
  solubility in water: essentially insoluble in water
